Values joined by “and” are separate entries in the source; they are usually repeats but may differ in a detail not shown here. Identical values can stand only once.
Target: T1, PfCRT^Dd2_M343L (Plasmodium falciparum, UniProt Q8IBZ9, A220S/I356T/K76T/M343L/M74I/N326S/N75E/Q271E/R371I)
T1 construct: expressed in transfected cells; host or cells: Xenopus laevis oocytes injected with in vitro transcribed RNA (pSP64T)
T1 sequence (Q8IBZ9 1-424 M74I/N75E/K76T/A220S/Q271E/N326S/M343L/I356T/R371I): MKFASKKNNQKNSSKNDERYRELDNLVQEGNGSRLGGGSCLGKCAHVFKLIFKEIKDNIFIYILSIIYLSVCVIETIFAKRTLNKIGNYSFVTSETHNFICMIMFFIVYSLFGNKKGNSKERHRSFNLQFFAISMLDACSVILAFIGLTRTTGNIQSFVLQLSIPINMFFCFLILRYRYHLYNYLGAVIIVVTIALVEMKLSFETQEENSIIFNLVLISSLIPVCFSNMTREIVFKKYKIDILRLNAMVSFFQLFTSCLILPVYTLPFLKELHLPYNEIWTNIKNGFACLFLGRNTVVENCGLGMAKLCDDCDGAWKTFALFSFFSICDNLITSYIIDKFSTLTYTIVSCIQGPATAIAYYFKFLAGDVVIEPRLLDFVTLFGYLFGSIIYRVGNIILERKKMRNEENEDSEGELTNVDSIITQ
Test: Radiolabeled drug uptake in X. laevis oocytes expressing PfCRT^Dd2_M343L
Assay type: cell-based
Description: A codon-optimized coding sequence of the Dd2 isoform of PfCRT (PfCRT^Dd2) was subcloned into the pSP64T expression vector [21]. To generate the necessary mutations to introduce the amino acid substitutions H97Y, F145I, M343L or G353V into the pfcrt sequence, the overlap extension method was used. A region from the 5’-untranslated Xenopus β-globin sequence to the respective 3’ region, containing the full length pfcrt coding sequence, was amplified using the following primer pairs: for the H97Y mutation, numbers 1/4 and 2/3; for the F145I mutation, numbers 1/6 and 2/5; for the M343L mutation, numbers 1/8 and 2/7; and for the G353V mutation, numbers 1/10 and 2/9 (for primers, see S2 Table). Both PCR products were used as template for amplification of the final product using primers number 1/2. The resulting fragment was cloned into the pSP64T expression vector, and the presence of the desired mutation was confirmed by sequencing.
Adult female X. laevis frogs (purchased from NASCO) were anesthetized by submersion in a solution of 0.3% (w/v) 3-amino benzoate methanesulfonate for 15 min. Sections of the ovary were surgically removed and placed in Ca^2+-free ND96 buffer supplemented with 0.1% collagenase D (w/v; Roche), 0.5% BSA (w/v) and 9 mM Na2HPO4 at 18°C for 14–16 h while gently shaking. The oocytes were then washed several times with ND96 buffer (5 mM HEPES, pH 7.5, 96 mM NaCl, 2 mM KCl, 1.8 mM CaCl2, 1 mM MgCl2), supplemented with […] gentamycin. Healthy-looking stage V-VI oocytes were manually selected and randomly grouped for injection. A codon-optimized coding sequence of PfCRT was subcloned into the pSP64T expression vector and subsequently linearized using the restriction endonuclease BamHI or SalI (New England Biolabs GmbH). RNA for injection was transcribed in vitro using the mMESSAGE mMACHINE SP6 Transcription kit (Ambion), diluted with nuclease-free water to a final concentration of 0.6 μg/μL and stored at -80°C. RNA was injected using precision-bore glass capillary tubes (3.5-inch glass capillaries; Drummond Scientific Co.), which were pulled on a vertical puller (P-87 Flaming/Brown micropipette puller, Sutter Instrument Co.) and graduated. The micropipettes were connected to a microinjector (Nanoject II Auto-Nanoliter Injector, Drummond Scientific Co.). Injection was conducted under stereomicroscopic control. 50 nL of nuclease-free water alone (control oocytes) or 50 nL of nuclease-free water containing 30 ng of RNA was injected per oocyte. Injected oocytes were kept for 72 h at 18°C in ND96 buffer with two daily buffer changes before being used for further experiments.
Drug transport assays were performed as previously described. Briefly, measurements of radiolabeled drug uptake were made over 1 h, unless otherwise specified. […] Where specified, one or more unlabeled drugs were also present at the indicated concentrations. […] The uptake assays were terminated by removing the oocytes from the reaction medium and washing them three times with 2 mL of ice-cold ND96 buffer. Each oocyte was transferred to a separate scintillation vial and lysed by the addition of 200 μL of a 5% SDS solution. The radioactivity in the sample was measured using a liquid scintillation analyser Tri-Carb 4910 TR (PerkinElmer). Water-injected oocytes were analyzed in parallel as a negative control. The buffer from each condition was measured in duplicate in parallel to each experiment to transform counts per minute into pmol of drug. Drug uptake attributable to PfCRT was determined by subtracting the background uptake from water-injected oocytes from that of PfCRT-expressing oocytes. In all cases, at least three independent experiments were performed on oocytes from different frogs, and for each condition in an experiment, measurements were made from 10 oocytes per treatment.

Compound	PfCRTDd2_M343L-mediated CQ uptake at 10 µM CQ (10 µM CQ, single replicates)	PfCRTDd2_M343L-mediated CQ uptake at 50 µM CQ (50 µM CQ, single replicates)	PfCRTDd2_M343L-mediated CQ uptake at 100 µM CQ (100 µM CQ, single replicates)	PfCRTDd2_M343L-mediated CQ uptake at 300 µM CQ (300 µM CQ, single replicates)	PfCRTDd2_M343L-mediated CQ uptake at 500 µM CQ (500 µM CQ, single replicates)	Vmax, maximal velocity of drug transport (Michaelis-Menten fit, 10-500 μM drug, pH 6)	PfCRTDd2_M343L-mediated PPQ uptake at 10 µM PPQ (10 µM PPQ, single replicates)	PfCRTDd2_M343L-mediated PPQ uptake at 50 µM PPQ (50 µM PPQ, single replicates)	PfCRTDd2_M343L-mediated PPQ uptake at 100 µM PPQ (100 µM PPQ, single replicates)	PfCRTDd2_M343L-mediated PPQ uptake at 300 µM PPQ (300 µM PPQ, single replicates)	PfCRTDd2_M343L-mediated PPQ uptake at 500 µM PPQ (500 µM PPQ, single replicates)	Km (Michaelis-Menten fit, 10-500 μM drug, pH 6, read-out: KM, Michaelis constant)
CCN(CC)CCCC(C)Nc1ccnc2cc(Cl)ccc12 (stereo not drawn) [CQ, chloroquine]	1.16 pmol oocyte-1 h-1 and 0.62 pmol oocyte-1 h-1 and 0.22 pmol oocyte-1 h-1	2.13 pmol oocyte-1 h-1 and 3.20 pmol oocyte-1 h-1 and 2.38 pmol oocyte-1 h-1 and 2.37 pmol oocyte-1 h-1	5.08 pmol oocyte-1 h-1 and 4.43 pmol oocyte-1 h-1 and 5.13 pmol oocyte-1 h-1	10.45 pmol oocyte-1 h-1 and 11.10 pmol oocyte-1 h-1 and 13.47 pmol oocyte-1 h-1	14.93 pmol oocyte-1 h-1 and 14.77 pmol oocyte-1 h-1 and 15.77 pmol oocyte-1 h-1	31 ± 2 pmol oocyte^-1 h^-1						
Clc1ccc2c(N3CCN(CCCN4CCN(c5ccnc6cc(Cl)ccc56)CC4)CC3)ccnc2c1 [PPQ, piperaquine]							13.08 pmol oocyte-1 h-1 and 6.84 pmol oocyte-1 h-1 and 2.69 pmol oocyte-1 h-1	84.22 pmol oocyte-1 h-1 and 103.15 pmol oocyte-1 h-1 and 60.92 pmol oocyte-1 h-1 and 65.48 pmol oocyte-1 h-1 and 62.52 pmol oocyte-1 h-1 and 18.03 pmol oocyte-1 h-1	130.36 pmol oocyte-1 h-1 and 98.93 pmol oocyte-1 h-1 and 50.24 pmol oocyte-1 h-1	154.89 pmol oocyte-1 h-1 and 102.01 pmol oocyte-1 h-1 and 116.02 pmol oocyte-1 h-1	164.14 pmol oocyte-1 h-1 and 130.73 pmol oocyte-1 h-1 and 130.95 pmol oocyte-1 h-1	80 ± 16 µM

From PMC10281575, “PfCRT mutations conferring piperaquine resistance in falciparum malaria shape the kinetics of quinoline drug binding and transport” (PLOS Pathogens, 2023)
